Read-outs that look alike come from different tables or passages of the source.
How the values were obtained:
HIV IN [1] = biological target: T1, HIV IN (Human immunodeficiency virus type 1 group M subtype B, UniProt P12497); conditions: read-out: IC50 active site directed strand transfer assay; cited from earlier work
LEDGF site of HIV IN = tested on: LEDGF site of HIV IN; parameters: method as in PMID 21767569; conditions: read-out: IC50 AS assay for binding at the LEDGF site; cited from earlier work
[2] = biological target: T2, His6-tagged HIV IN / Flag-tagged LEDGF interaction (Human immunodeficiency virus type 1 group M subtype B, UniProt P12497); test: IN-LEDGF AlphaScreen (AS) assay; format: binding, HIV-1; conditions: 30 nM IN, 30 nM Flag-LEDGF, 30°C
T2 construct: Hexa-His tagged full length HIV IN was expressed and purified as follows; made in house; host or cells: E. coli BL21(DE3), pET28b(+)
Method: (§1) For the IN-LEDGF AS assay, compound dilutions and His6-tagged IN (30 nM final concentration) were initially incubated together in 10 µl of reaction buffer (25 mM Tris-Cl pH 7.5, 25 mM NaCl, 5 mM MnCl2, 5 mM MgCl2, 5 mM BME, 50 µg/ml bovine serum albumin and 0.05% (v/v) Tween-20) for 10 min at room temperature in AlphaPlate™-384 SW plates (Perkin-Elmer). Subsequently, 10 µl reaction buffer containing Flag-tagged LEDGF (30 nM final concentration), AS Ni-chelate donor beads (Perkin-Elmer; 5 µg/ml final) and AlphaLISA anti-FLAG acceptor beads (Perkin-Elmer; 5 µg/ml final) were added and protein association allowed to occur for 1 hour in the dark at 30°C before emission from the donor beads was measured using a PHERAstar FS plate-reader (BMG Labtech). Counter screen assays to ensure the compounds were not inhibiting the binding of the His or FLAG tags to the beads or quenching of the signal, were performed under the same reaction conditions except that a Flag-His6 fusion protein was used (20 nM final) instead of individual His6-tagged IN and Flag-tagged LEDGF proteins, and the initial 10 min incubation at room temperature was omitted.

[3] = biological target: T3, HIV integrase catalytic core domain core3H (C56S, F139D, F185H) (Human immunodeficiency virus type 1 group M subtype B, UniProt P12497, C1203S/F1286D/F1332H); test: SPR binding to core3H; conditions: construct not given
T3 construct: catalytic core domain (CCD) IN (residues 50 to 210) containing the mutations C56S, F139D and F185H (core3H); made in house; host or cells: E. coli, pET28b(+)
Method: Core3H and core4H proteins (∼3×10^−8 moles) were “minimally” biotinylated on ice for 2 hours using an equimolar concentration of EZ-Link® Sulfo-NHS-LC-LC-Biotin (Pierce). To remove unreacted biotin reagent, biotinylated proteins were passed through a Superdex 75 (10/300 GL) column equilibrated in ‘SPR capture’ buffer (50 mM HEPES pH 7.4, 150 mM NaCl, 0.05% (v/v) Tween20, 5 mM DTT, 10 mM MgCl2). The eluted proteins were stored frozen in 50 µl aliquots at −70°C. Streptavidin (Sigma) was immobilized at 25°C onto a CM7 sensor chip (GE Healthcare) docked in a Biacore T200 upgrade instrument (GE Healthcare) using a previously described procedure resulting in immobilization levels of approximately 12000 RU of protein being coupled in all flow cells. The biotinylated core IN proteins were captured onto a Streptavidin chip surface in SPR capture buffer by injecting at 5 µL/min for 5 min over a single flow cell, typically resulting in immobilization of approximately 2300 RU of target protein. A minimally-biotinylated tyrosine kinase domain of CSF-1-R was captured (∼4300 RU) in a separate flow cell to provide for an unrelated negative control. […] All SPR binding experiments were performed at 20°C in SPR binding buffer (50 mM HEPES pH 7.4, 150 mM NaCl, 0.05% (v/v) Tween20, 5 mM DTT, 10 mM MgCl2, 5% (v/v) DMSO). Small molecules stock solutions were serially diluted (2-fold) in SPR binding buffer and injected for 30 sec contact time at 60 µL/min and then allowed to dissociate for 60 sec. The entire concentration series for each compound was performed in triplicate.
Raw sensorgram data were processed, solvent corrected and double referenced using Scrubber software (BioLogic Software, Australia). For easy comparison between data sets, all experiments were normalized using a normalization formula of Giannetti et al. To determine the binding affinity (KD), responses at equilibrium for each analyte were fitted to a 1∶1 steady state affinity model available within Scrubber.

HIV-1NL4-3 = test: Virus infectivity assay (p24) in HuT78 cells; format: cell-based; conditions: Human immunodeficiency virus 1, p24 production
Method: (§2) HuT78 cells were seeded into 96 well microtiter plates at 50,000 cells per 50 µl per well in RF-10 containing 2 µg/ml polybrene (RF-10/2). Compounds were prepared to 4× final concentration in RF-10/2, and 30 µl was added to cells. HIV-1NL4–3 (40 µl in RF-10/2 containing 1600 plaque forming units (pfu)) was added to each well or 40 µl of RF-10/2 was added to the negative controls, and when assaying compound cytotoxicity. pfu were determined by titrating virus stocks on HT4LacZ cells as described by Rocancourt et al. After 24 hours, an additional 90 µl of media or media containing 1× compound was added to each well. At 4 days post-infection, 100 µl of media was removed from each well and replaced with 100 µl of fresh media with or without compound. 48 hours later supernatants were harvested and levels of extracellular p24 determined. Supernatants were diluted 1 in 10,000 and p24 levels assayed using the Vironostika p24 assay kit.

[4] = Cell toxicity counter screen of virus infectivity assay; format: cell-based; conditions: human, HuT78 cells
Method: as §2

Flag-His6 fusion protein = test: AlphaScreen counter screen; conditions: Flag-His6 fusion protein 20 nM
Method: as §1, with “omitted. The specificity of FLAG-LEDGF for IN binding was confirmed by competing the FLAG-LEDGF with untagged LEDGF. At a 1∶1 molar ratio with FLAG-LEDGF, untagged LEDGF reduced the AS signal by 50%.” for “omitted.”

HIV IN [5] = biological target: T1, HIV IN; test: Strand transfer assay which did not contain LEDGF; format: biochemical; conditions: without LEDGF; data not shown
[6] = tested on: HIV-1 with IN Q148H/G140S (QHGS); test: Single-round infectivity assay in 293T cells, IN QHGS mutant; format: cell-based; conditions: Human immunodeficiency virus 1, HEK-293T, read-out: EC50 cell infectivity assay, IN QHGS
Method: (§3) Single-round infectivity assays were performed with 293T cells. […]. […] Culture supernatants containing VSV-G pseudotyped virions were harvested 64 hours post-transfection, clarified by centrifugation to remove cell debris, and stored at −80°C. HIV IN mutations known to confer resistance to published IN inhibitors were prepared by site directed mutagenesis of the pol (IN) gene in a shuttle vector which contained the majority of the HIV gag and pol sequence. The mutated IN coding region was then sequence verified and exchanged for the wild-type coding sequence in the pHIV env-Luc reporter virus plasmid. Single round infection assays were conducted in 293T cells seeded in 96 well plates 16 hours prior to compound addition. Compounds were pre-incubated with cells for 4 hours at 37°C followed by the addition of sufficient virus to generate approximately 10,000 Luciferase light units in the absence of compound. Luciferase readout was measured 48 hours post-infection using the Bright-Glo™ reagent (Promega) according to the manufacturer’s instructions.

[7] = tested on: HIV-1 with IN N155H/E92Q (NHEQ); test: Single-round infectivity assay in 293T cells, IN NHEQ mutant; format: cell-based; conditions: Human immunodeficiency virus 1, HEK-293T, read-out: EC50 cell infectivity assay, IN NHEQ
Method: as §3

[8] = tested on: LEDGF interaction with IN; parameters: method as in PMID 20473303; conditions: read-out: AS IC50; cited from earlier work
HIV-1 [9] = tested on: HIV-1; parameters: method as in PMID 20473303; conditions: MT-4 cells; read-out: EC50 HIV-1 infection of MT-4 cells; cited from earlier work
HIV-1 [10] = tested on: HIV-1; parameters: method as in PMID 20473303; conditions: PBMC cells; read-out: EC50 HIV-1 infection of PBMC cells; cited from earlier work
HIV IN [11] = biological target: T1, HIV IN; conditions: read-out: IC50 inhibition of strand transfer activity of HIV IN; cited from earlier work
HIV IN [12] = biological target: T1, HIV IN; conditions: cited from earlier work
HIV IN [13] = biological target: T1, HIV IN; conditions: read-out: IC50 strand transfer; cited from earlier work
HIV-1 with wild type IN = test: Single-round infectivity assay in 293T cells, wild type IN; format: cell-based; conditions: Human immunodeficiency virus 1, HEK-293T, read-out: EC50 cell infectivity assay, wild type IN
Method: as §3

SMILES: O=C(O)C(O)=CC(=O)c1cn(Cc2ccc(F)cc2)c2cccc(O)c12 [CHI-1043, 4-[1-(4-Fluorobenzyl)-4-hydroxy-1H-indol-3-yl]-2-hydroxy-4-oxobut-2-enoic acid]
- IC50 (HIV IN [1]): 0.14 µM
- IC50 (LEDGF site of HIV IN): 36 µM

SMILES: O=C1Cc2ccccc2/C1=C\c1ccc2c(c1C(=O)O)OCO2 [Compound 2]
- IC50 [2]: 200 µM

SMILES: O=C(O)c1c(/C=C2\c3ccccc3CC2O)ccc2c1OCO2 (stereo not shown) [Compound 3]
- IC50 [2]: 270 µM

SMILES: O=C(O)c1c(CN2Cc3ccccc3C(=O)N(Cc3ccccc3)C2)ccc2c1OCO2 [Compound 4]
- IC50 [2]: 110 µM
- binding in the SPR assay (in words) [3]: did not bind
- EC50 (HIV-1NL4-3): 275 µM
- CC50 at 6 days [4]: 265 µM

SMILES: COc1ccc(CN2CN(Cc3ccc4c(c3C(=O)O)OCO4)Cc3ccccc3C2=O)cc1 [Compound 5]
- IC50 [2]: 600 µM

SMILES: COc1ccc(CNC(=O)c2ccccc2CNCc2ccc3c(c2C(=O)O)OCO3)cc1 [Compound 6]
- IC50 [2]: 270 µM
- binding in the SPR assay (in words) [3]: binding could not be detected

SMILES: COc1ccc(CNC(=O)c2ccccc2CN(C)Cc2ccc3c(c2C(=O)O)OCO3)cc1 [Compound 7]
- IC50 [2]: 220 µM

SMILES: CN(Cc1ccccc1C(=O)NCC1CCCCC1)Cc1ccc2c(c1C(=O)O)OCO2 [Compound 8]
- IC50 [2]: 100 µM
- binding in the SPR assay (in words) [3]: loss of SPR activity

SMILES: C=CCN(Cc1ccccc1C(=O)NCc1ccc(OC)cc1)Cc1ccc2c(c1C(=O)O)OCO2 [Compound 9]
- IC50 [2]: 815 µM
- binding in the SPR assay (in words) [3]: retained SPR activity

SMILES: C=CCN(Cc1ccccc1C(=O)NC(CCC)c1ccc(OC)cc1)Cc1ccc2c(c1C(=O)O)OCO2 (stereo not shown) [Compound 10]
- IC50 [2]: 29 µM
- IC50 (Flag-His6 fusion protein): 175 µM
- activity in strand transfer assay (HIV IN [5]): inactive

SMILES: C=CCN(Cc1ccccc1C(=O)NC(c1ccc(OC)cc1)c1ccc(OC)cc1)Cc1ccc2c(c1C(=O)O)OCO2 [Compound 11]
- IC50 (Flag-His6 fusion protein): 145 µM
- EC50 (HIV-1NL4-3): 29 µM
- CC50 at 6 days [4]: > 100 µM
- EC50 [6]: 54 µM
- EC50 [7]: 37 µM
- activity in strand transfer assay (HIV IN [5]): inactive

SMILES: CCCC(C(=O)O)c1c(C)nc2ccc(Cl)cc2c1-c1ccccc1 (stereo not shown) [LEDGIN-6]
- IC50 [8]: 1.37 µM
- EC50 (HIV-1 [9]): 2.73 µM
- EC50 (HIV-1 [10]): 3.45 µM
- IC50 (HIV IN [11]): 19.5 µM

SMILES: O=C(NCC1CCCCC1)c1cc(S(=O)(=O)N2CCCCC2)cc(O)c1O [N-(cyclohexylmethyl)-2,3-dihydroxy-5-(piperidin-1-ylsulfonyl) benzamide]
- IC50 (HIV IN [12]): 8 µM
- IC50 (HIV IN [13]): 19 µM

SMILES: Cc1nnc(C(=O)NC(C)(C)c2nc(C(=O)NCc3ccc(F)cc3)c(O)c(=O)n2C)o1 [raltegravir, reference compound]
- EC50 [6]: > 1 µM
- EC50 [7]: > 1 µM
- EC50 (HIV-1 with wild type IN): 0.01 µM

Reference: paper PMC3393750, “Small Molecule Inhibitors of the LEDGF Site of Human Immunodeficiency Virus Integrase Identified by Fragment Screening and Structure Based Design” (PLoS ONE, 2012)
